Measurements taken from paper PMC12622528, “Discovery of a Baloxavir‐Inspired Endonuclease Inhibitor That Prevents Herpes Simplex Virus 1 Replication in Cell Culture and In Vivo” (Advanced Science, 2025).

Experiments:
[1] = test system: ACV‐resistant HSV‐1 strain F‐TKGF; experiment: Antiviral assay, ACV‐resistant HSV‐1 strain F‐TKGF in Vero cells; conditions: Human alphaherpesvirus 1, Vero, read-out: EC50 against ACV‐resistant strain F‐TKGF
[2] = test system: HSV‐1; experiment: HSV‐1 infection model in BALB/c mice; format: in vivo; conditions: for clinical symptoms of the infection / morbidity: oral LN‐7 75 mg kg−1 or acyclovir 50 mg kg−1; for survival: 8 days postinfection
[3] = Cell viability (MTT) in Vero cells; conditions: African green monkey
[4] = test system: BALB/c mice; conditions: oral, five consecutive days, LN‐7 25, 50, 75 mg kg−1, acyclovir 50 mg kg−1, 12 days
Method: BALB/c mice were purchased from Charles River Laboratories Spain and maintained at the Animal Facility of the CBM (Madrid, Spain). The toxicity of the test compound LN‐7 was investigated in BALB/c mice dosed as a solution at 25, 50, and 75 mg kg^−1. The compound was formulated in 3% DMSO + 10% solutol HS‐15 + 87% double‐distilled water (20 mg mL^−1). Animals had free access to food and water throughout each study. […] Compounds were orally administered for five consecutive days. Animals were monitored daily for clinical signs (piloerection, lethargy, eye closure), body weight loss, and survival. Oral administration and symptom monitoring was performed by researchers that were aware of the treatment condition (group allocation) for each animal. […] Animals with score 4 were defined as the humane endpoint on which the animal must be euthanized. On day 12, mice were sacrificed and whole blood was obtained by cardiac puncture. Several parameters were analyzed to monitor renal, hepatic, and immunological basic profiles. Body weight was also monitored to exclude weight loss or lack of weight gain that would be indicative of toxicity.

[5] = target: HSV‐1 pUL15C (Human herpesvirus 1, UniProt P04295); experiment: HSV‐1 pUL15C nuclease inhibition enzymatic assay (32P‐labeled 33‐bp dsDNA substrate); format: biochemical; conditions: for inhibition at 50 µM: read-out: percentage inhibition of pUL15C nuclease activity at the highest concentration tested; for IC50: concentration required to inhibit by 50% the pUL15C nuclease activity, 37 °C, 1 mM MnCl2, 15 min
[6] = test system: recombinant HSV‐2 GFP strain; conditions: Human alphaherpesvirus 2, Vero, read-out: EC50 against recombinant HSV‐2 GFP strain
[7] = test system: HSV‐2 strains G and Lovelace; experiment: Antiviral assay, HSV‐2 strains G and Lovelace in Vero cells (viral titer, TCID50); conditions: 10 µM, 24 h post‐infection
[8] = Pharmacokinetics studies in rats; format: in vivo; conditions: male, Sprague-Dawley, plasma, rat
Method: Six male Sprague‐Dawley rats (180–200 g) were randomly divided into two groups to receive […] of LN‐7 at 2 mg kg^−1 (iv administration) or 10 mg kg^−1 (po administration). LN‐7 was dissolved in DMSO, and then diluted at a concentration of 1 mg mL^−1 in 3% DMSO, 10% solutol HS‐15, and 87% double‐distilled water for dosing. Rats were purchased from Beijing Vital River Laboratory Animal Technology Co., Ltd. (Qualification No. SCXK(SH) 2021‐0011). Animals were subjected to 12 h alternating light and dark cycles, ad libitum access to drinking water and food, and fasting for 12 h prior to the initiation of treatments. For the oral dose at 10 mg kg^−1, blood samples were collected at 0.083, 0.25, 0.5, 1, 2, 4, 6, 8, and 24 h postadministration. For the intravenous dose (at 2 mg kg^−1), blood samples were collected at 0.083, 0.25, 0.5, 1, 2, 4, 6, 8, and 24 h postadministration. Twenty µL of blood were mixed with a 200 µL solution of methanol:acetonitrile (1:1), vortexed for 5 min, and centrifuged (4000 rpm, 4 °C, 10 min) to obtain plasma within 30 min of sampling. The supernatant was analyzed by liquid chromatography–tandem mass spectrometry. Chromatographic separation was performed using an ACQUITY UPLC HSS T3 column (2.1 × 50 mm, 1.8 µm). […] Gradient elution was carried out at a flow rate of 0.8 mL min^−1. […] Mass spectrometric detection was performed with an electrospray ionization source operating in positive ion mode. Quantification was achieved using multiple reaction monitoring with the following transitions: m/z 403.15.
Pharmacokinetic parameters such as AUC, T 1/2, and C max were calculated with the WinNonlin software.

[9] = treatment after infection, days 0-3 p.i., LN‐7 75 mg kg−1, acyclovir 50 mg kg−1 or both

Sequence of HSV‐1 pUL15C (P04295 471-735): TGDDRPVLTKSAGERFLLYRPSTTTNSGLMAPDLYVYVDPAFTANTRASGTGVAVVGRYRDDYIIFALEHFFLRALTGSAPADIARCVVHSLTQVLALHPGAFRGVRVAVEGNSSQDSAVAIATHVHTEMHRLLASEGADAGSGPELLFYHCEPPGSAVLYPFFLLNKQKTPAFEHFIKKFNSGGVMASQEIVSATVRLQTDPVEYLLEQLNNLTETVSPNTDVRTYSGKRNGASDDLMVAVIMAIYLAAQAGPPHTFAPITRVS

## Nc1nc2c(ncn2COCCO)c(=O)[nH]1 [Acyclovir (ACV), Acyclovir, reference compound]
[1]
  EC50: > 20 µM
[2]; prophylactic setting
  clinical symptoms of the infection / morbidity: Clinical symptoms of the infection were observed
[2]; [9]
  clinical symptoms: clinical symptoms were alleviated
  piloerection: piloerection was observed
  survival: survived until the end of the experiment
[3]; Vero cells
  CC50 at 24 h: > 100 µM
[4]
  toxic symptoms or mortality: did not show any toxic symptoms or mortality

## O=C1c2c(O)c(=O)ccn2N([C@@H]2c3ccccc3SCc3c2ccc(F)c3F)[C@@H]2COCCN12 [Baloxavir acid, reference compound]
[3]
  CC50 at 24 h: > 100 µM

## COC(=O)OCOc1c2n(ccc1=O)N([C@@H]1c3ccccc3SCc3c1ccc(F)c3F)[C@@H]1COCCN1C2=O [Baloxavir marboxil, reference compound]
[3]
  CC50 at 24 h: > 100 µM

## O=C1c2c(O)c(=O)ccn2N(Cc2ccc(C(F)(F)F)cc2)[C@@H]2COCCN12 [Compound 7]
[3]; Vero cells
  CC50 at 24 h: > 100 µM

## O=C1c2c(O)c(=O)ccn2N(Cc2ccc(Cl)c(F)c2)[C@@H]2COCCN12 [Compound 10]
[3]; Vero cells
  CC50 at 24 h: > 100 µM

## O=C1c2c(O)c(=O)ccn2N(Cc2ccc3ccc4cccc5ccc2c3c45)[C@@H]2COCCN12 [Compound 12]
[5]
  inhibition at 50 µM: 65.4%
  IC50: > 30 µM

## O=C1c2c(O)c(=O)ccn2N(Cc2ccc(-c3ccco3)cc2)[C@@H]2COCCN12 [Compound 16, (R)-12-(4-(furan-2-yl)benzyl)-7-hydroxy-3,4,12,12a-tetrahydro-1H-[1,4] oxazi no[3,4-c] pyrido[2,1-f] [1,2,4] triazine-6,8-dione]
[3]; Vero cells
  CC50 at 24 h: > 100 µM

## O=C1c2c(O)c(=O)ccn2N(Cc2ccc(-c3ccccc3)cc2)[C@@H]2COCCN12 [Compound 17, (R)-12-([1,1'-biphenyl] -4-ylmethyl)-7-hydroxy-3,4,12,12a-tet rahydro-1H-[1,4] oxazino[3,4-c] pyrido[2,1-f] [1,2,4] triazine-6,8-dione]
[1]
  EC50: 3.2 ± 0.3 µM
[2]; prophylactic setting, oral LN‐7 75 mg kg−1, days −1 to 3 p.i., day 8 p.i.
  HSV‐1 titers in lung, brain, olfactory bulb and spleen tissues: decreased around one to two orders of magnitude
[2]; prophylactic setting
  clinical symptoms of the infection / morbidity: morbidity was higher for the LN‐7‐treated animals
[2]; [9]
  clinical symptoms: clinical symptoms were alleviated
  piloerection: piloerection was observed
  survival: survived until the end of the experiment
[2]; treatment after infection, days 0-3 p.i., LN‐7 75 mg kg−1, acyclovir 50 mg kg−1 or both, day 8 p.i.
  viral titers in tissues (lungs, brain, olfactory bulb, kidneys, spleen): significant reductions in the viral titers in all analyzed tissues of treated mice, except for kidney tissue
[3]; Vero cells
  CC50 at 24 h: 38.8 µM
[6]
  EC50: 3.6 ± 1.8 µM
[7]
  reduction in the viral titer: reduction of two orders of magnitude
[4]
  toxic symptoms or mortality: did not show any toxic symptoms or mortality
[8]; IV 2 mg/Kg
  AUC(0-inf): 1230 ± 182 ng·h/mL
  Cmax: 782 ± 63.2 ng/mL
  Tmax: 0.0833 h
  clearance: 27.4 mL/min/kg
  half-life: 374 ± 74.4 min
[8]; IV 2 mg/Kg, read-out: Vz
  Vd: 15.1 ± 4.05 L/kg
[8]; PO 10 mg/Kg
  AUC(0-inf): 2980 ± 763 ng·h/mL
  Cmax: 573 ± 152 ng/mL
  Tmax: 2 h
  half-life: 332 ± 40.6 min

## O=C1c2c(O)c(=O)ccn2N(Cc2ccc(-c3ccc4[nH]ccc4c3)cc2)[C@@H]2COCCN12 [Compound 19]
[5]
  inhibition at 50 µM: 51.5%
  IC50: > 30 µM

## O=C1c2c(O)c(=O)ccn2N(Cc2ccc(-c3ccc(F)cc3)cc2)[C@@H]2COCCN12 [Compound 30]
[3]; Vero cells
  CC50 at 24 h: > 66.5 µM

## O=C1c2c(O)c(=O)ccn2N(Cc2ccc(-c3ccc(Cl)cc3)cc2)[C@@H]2COCCN12 [Compound 31]
[5]
  inhibition at 50 µM: 48.1%
  IC50: > 30 µM

## O=C1c2c(O)c(=O)ccn2N(Cc2ccc(-c3ccc([N+](=O)[O-])cc3)cc2)[C@@H]2COCCN12 [Compound 32]
[5]
  inhibition at 50 µM: 74.3%
  IC50: > 30 µM

## COc1ccc(-c2ccc(CN3[C@@H]4COCCN4C(=O)c4c(O)c(=O)ccn43)cc2)cc1 [Compound 33]
[5]
  IC50: 19.4 ± 1.3 µM

## O=C1c2c(O)c(=O)ccn2N(Cc2ccc(-c3ccc(OC(F)(F)F)cc3)cc2)[C@@H]2COCCN12 [Compound 34]
[3]; Vero cells
  CC50 at 24 h: > 52.8 µM

## O=C(Nc1ccccc1)c1ccc(-c2ccc(CN3[C@@H]4COCCN4C(=O)c4c(O)c(=O)ccn43)cc2)cc1 [Compound 40]
[5]
  inhibition at 50 µM: 42.7%
  IC50: > 30 µM

## CC(C)c1ccc(O)c(=O)c(O)c1 [β‐thujaplicinol, reference compound]
[3]; Vero cells
  CC50 at 24 h: > 100 µM
